pIC50: −log10 of the molar value. Where a SMILES comes first, the peptide text is derived from it. Bridges are numbered along the chain shown (N, C = ends). [ ]: non-standard residue; d: D form. The star is where a group is joined. hPhe(3-Cl-4-CF3) = N[C@@H](CCc1ccc(C(F)(F)F)c(Cl)c1)C(=O)O; NPrPhe(4-CF3) = CCCN[C@@H](Cc1ccc(C(F)(F)F)cc1)C(=O)O; Piperazinyl(4-(3-oxetanyl)) = C1OCC1N1CCN(*)CC1; NEtPhe(4-F) = CCN[C@@H](Cc1ccc(F)cc1)C(=O)O; Pro(4-spirocPr) = O=C(O)[C@@H]1CC2(CC2)CN1; NMeGly(cPent) = CN[C@H](C(=O)O)C1CCCC1; NMeD = CN[C@@H](CC(=O)O)C(=O)O; NMeL = CN[C@@H](CC(C)C)C(=O)O; Morpholide = C1CN(*)CCO1; NMeA = CN[C@@H](C)C(=O)O; Ac5c = NC1(C(=O)O)CCCC1; Aze = O=C(O)[C@@H]1CCN1; Ac4c = NC1(C(=O)O)CCC1; Sar = CNCC(=O)O
What was measured:
HRAS wild-type protein = HRAS wild-type protein (Homo sapiens, UniProt P01112); test: Binding to HRAS by surface plasmon resonance (SPR), KD and KD ratio to KRAS
HRAS wild-type protein, sequence (P01112 whole entry): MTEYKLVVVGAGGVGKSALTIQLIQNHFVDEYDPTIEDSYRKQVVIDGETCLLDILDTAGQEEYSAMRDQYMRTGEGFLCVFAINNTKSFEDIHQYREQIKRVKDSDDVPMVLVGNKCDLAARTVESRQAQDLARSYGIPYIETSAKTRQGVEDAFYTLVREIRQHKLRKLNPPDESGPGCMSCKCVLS
Outline: (§1)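 Single-cycle kinetics on GDP-loaded biotin-Avi RAS captured to ~100–300 RU; 75 s ascending injections, 100 µL/min, 30°C. HBS pH 7.4 + 10 mM MgCl2/10 µM GDP/4% DMSO. 1:1 fit, KD.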

[1] = biological target: GDP-bound NRAS wild-type protein (Homo sapiens, UniProt P01111); test: Binding to NRAS by surface plasmon resonance (SPR), KD and KD ratio to KRAS
GDP-bound NRAS wild-type protein, sequence (P01111 whole entry): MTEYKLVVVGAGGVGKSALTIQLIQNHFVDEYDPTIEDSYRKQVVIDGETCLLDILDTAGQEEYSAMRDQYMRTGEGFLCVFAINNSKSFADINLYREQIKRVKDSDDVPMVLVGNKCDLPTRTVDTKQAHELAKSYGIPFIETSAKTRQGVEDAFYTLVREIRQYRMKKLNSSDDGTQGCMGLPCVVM
Outline: as §1

[2] = system: human lung cancer strain NCI-H441; format: cell-based
Outline: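 Proliferation was scored by […] measured after the reagent was added to cultures kept at 37°C in 5% carbon dioxide.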

[3] = ratio of KD for HRAS wild-type protein to KD for KRAS
[4] = ratio of KD for GDP-bound NRAS wild-type protein to KD for KRAS
[5] = ratio of KD value for HRAS wild-type protein to KD value for KRAS (SPR)
[6] = ratio of KD value for GDP-bound NRAS wild-type protein to KD value for KRAS (SPR)
[7] = ratio of the KD value with respect to HRAS wild-type protein to the KD value with respect to KRAS
[8] = ratio of the KD value with respect to GDP-bound NRAS wild-type protein to the KD value with respect to KRAS

| Compound | HRAS /KRAS (HRAS wild-type protein; [3]) | NRAS /KRAS [1, 4] | pIC50 [2] | HRAS /KRAS (HRAS wild-type protein; [5]) | NRAS /KRAS [1, 6] | HRAS /KRAS (HRAS wild-type protein; [7]) | NRAS /KRAS [1, 8] |
| --- | --- | --- | --- | --- | --- | --- | --- |
| CCCN1C(=O)CN(C)C(=O)CN(C)C(=O)[C@H]([C@@H](C)CC)NC(=O)[C@H](CC(C)C)N(C)C(=O)C[C@@H](C(=O)N2CCOCC2)N(C)C(=O)[C@H](C2CCCC2)N(C)C(=O)C2(CCCC2)NC(=O)[C@@H]2CC3(CC3)CN2C(=O)[C@H](CCc2ccc(C(F)(F)F)c(Cl)c2)NC(=O)CN(C)C(=O)[C@@H]1Cc1ccc(C(F)(F)F)cc1 [PP0261] ([NMeL]I[Sar][Sar][NPrPhe(4-CF3)][Sar][hPhe(3-Cl-4-CF3)][Pro(4-spirocPr)][Ac5c][NMeGly(cPent)][NMeD]-Morpholide; lactam N-11) | C (A compound having a KD ratio of 0.1 or more and less than 3 is denoted as C) | B (a compound having 3 or more and less than 10 is denoted as B) | 8.34 |  |  |  |  |
| CCO[C@@H]1C[C@H]2C(=O)NC3(CCC3)C(=O)N(C)[C@@H](C3CCCC3)C(=O)N(C)[C@H](C(=O)N(C)CC)CC(=O)N(C)[C@@H](CC)C(=O)N[C@@H]([C@@H](C)CC)C(=O)N(C)CC(=O)N(C)[C@H]3C/C=C\CCN(C3=O)[C@@H](CC3CCC(F)(F)CC3)C(=O)N(C)CC(=O)N[C@@H](CCc3cc(F)c(C(F)(F)F)c(F)c3)C(=O)N2C1 [PP1553] |  |  | 7.92 | A (a compound having 10 or more and less than 20 is denoted as A) | A (a compound having 10 or more and less than 20 is denoted as A) |  |  |
| CC[C@H](C)[C@@H]1NC(=O)[C@H](C2CC2)N(C)C(=O)C[C@@H](C(=O)N(C)C)N(C)C(=O)[C@H](C2CCCC2)N(C)C(=O)C2(CCC2)N(C)C(=O)[C@@H]2CCCN2C(=O)[C@H](CCc2cc(F)c(C(F)(F)F)c(F)c2)NC(=O)CN(C)C(=O)[C@H](Cc2ccc(C)cc2)N2CC/C=C\C[C@@H](C2=O)N(C)C(=O)CN(C)C1=O [PP1784] |  |  | 8.11 | B (a compound having 3 or more and less than 10 is denoted as B) | A (a compound having 10 or more and less than 20 is denoted as A) |  |  |
| CCCC[C@H]1C(=O)N[C@@H]([C@@H](C)CC)C(=O)N(C)CC(=O)N(C)[C@H]2C/C=C\CCN(C2=O)[C@@H](Cc2ccc(C(F)(F)F)cc2)C(=O)N(C)CC(=O)N[C@@H](CCc2cc(F)c(C(F)(F)F)c(F)c2)C(=O)N2CC(F)(F)C[C@H]2C(=O)NC2(CC(C)(C)C2)C(=O)N(C)[C@@H](C2CCCC2)C(=O)N(C)[C@H](C(=O)N(C)C)CC(=O)N1C [PP1714] |  |  | 8.37 | A (a compound having 10 or more and less than 20 is denoted as A) | A (a compound having 10 or more and less than 20 is denoted as A) |  |  |
| C#CC[C@H]1C(=O)N[C@@H]([C@@H](C)CC)C(=O)N(C)CC(=O)N(C)[C@H]2CCCCCN(C2=O)[C@@H](Cc2ccc(C(F)(F)F)cc2)C(=O)N(C)CC(=O)N[C@@H](CCc2cc(F)c(C(F)(F)F)c(F)c2)C(=O)N2C[C@H](OCC)C[C@H]2C(=O)NC2(CCC2)C(=O)N(C)[C@@H](C2CCCC2)C(=O)N(C)[C@H](C(=O)N(C)C)CC(=O)N1C [PP0666] |  |  | 7.72 |  |  | B (a compound having 3 or more and less than 10 is denoted as B) | B (a compound having 3 or more and less than 10 is denoted as B) |
| CCC[C@H]1C(=O)N[C@@H]([C@@H](C)CC)C(=O)N(C)CC(=O)N(C)[C@H]2C/C=C\CCN(C2=O)[C@@H](Cc2ccc(C(F)(F)F)cc2)C(=O)N(C)CC(=O)N[C@@H](CCc2ccc(Cl)c(Cl)c2)C(=O)N2CC[C@H]2C(=O)NC2(CC(C)(C)C2)C(=O)N(C)[C@@H](C(CC)CC)C(=O)N(C)[C@H](C(=O)N(C)C)CC(=O)N1C [PP2921] | A (a compound having 10 or more and less than 20 is denoted as A) | AA (a compound having 20 or more is denoted as AA) | 6.80 |  |  |  |  |
| CCCN1C(=O)CN(C)C(=O)[C@@H]2CCN2C(=O)[C@H]([C@@H](C)CC)NC(=O)[C@H](CC(C)C)N(C)C(=O)C[C@@H](C(=O)N(C)C)NC(=O)[C@H](C2CCCC2)N(C)C(=O)C2(CCC2)NC(=O)[C@@H]2CCCN2C(=O)[C@H](CCc2ccc(C(F)(F)F)c(Cl)c2)NC(=O)CN(C)C(=O)[C@@H]1Cc1ccc(C(F)(F)F)cc1 [PP0374] ([NMeL]I[Aze][Sar][NPrPhe(4-CF3)][Sar][hPhe(3-Cl-4-CF3)]P[Ac4c][NMeGly(cPent)]D-NMe2; lactam N-11) | B (a compound having 3 or more and less than 10 is denoted as B) | B (a compound having 3 or more and less than 10 is denoted as B) | 6.85 |  |  |  |  |
| CCO[C@@H]1C[C@H]2C(=O)NC3(CCCC3)C(=O)N(C)[C@@H](C3CCCC3)C(=O)N(C)[C@H](C(=O)N(C)CC)CC(=O)N(C)[C@@H](CC(C)C)C(=O)N[C@@H]([C@@H](C)CC)C(=O)N(C)CC(=O)N(C)[C@H]3C/C=C\CCN(C3=O)[C@@H](Cc3ccc(C(F)(F)F)cc3)C(=O)N(C)CC(=O)N[C@@H](CCc3cc(F)c(C(F)(F)F)c(F)c3)C(=O)N2C1 [PP1574] |  |  | 8.19 | A (a compound having 10 or more and less than 20 is denoted as A) | A (a compound having 10 or more and less than 20 is denoted as A) |  |  |
| CCCN1C(=O)CN(C)C(=O)CN(C)C(=O)[C@H]([C@@H](C)CC)NC(=O)[C@H](CC(C)C)N(C)C(=O)C[C@@H](C(=O)N2CCN(C3COC3)CC2)N(C)C(=O)[C@H](C2CCCC2)N(C)C(=O)C2(CCCC2)NC(=O)[C@@H]2CCCN2C(=O)[C@H](CCc2ccc(C(F)(F)F)c(Cl)c2)NC(=O)CN(C)C(=O)[C@@H]1Cc1ccc(C(F)(F)F)cc1 [PP0175] ([NMeL]I[Sar][Sar][NPrPhe(4-CF3)][Sar][hPhe(3-Cl-4-CF3)]P[Ac5c][NMeGly(cPent)][NMeD]-{Piperazinyl(4-(3-oxetanyl))}; lactam N-11) | B (a compound having 3 or more and less than 10 is denoted as B) | B (a compound having 3 or more and less than 10 is denoted as B) | 8.18 |  |  |  |  |
| CCC[C@H]1C(=O)N[C@@H]([C@@H](C)CC)C(=O)N(C)CC(=O)N(C)[C@H]2C/C=C\CCN(C2=O)[C@@H](Cc2ccc(C)cc2)C(=O)N(C)CC(=O)N[C@@H](CCc2cc(F)c(C(F)(F)F)c(F)c2)C(=O)N2C[C@H](OCC)C[C@H]2C(=O)N(C)C2(CCC2)C(=O)N(C)[C@@H](C2CCCC2)C(=O)N(C)[C@H](C(=O)N2CCCCC2)CC(=O)N1C [PP3119] | A (a compound having 10 or more and less than 20 is denoted as A) | A (a compound having 10 or more and less than 20 is denoted as A) | 8.46 |  |  |  |  |
| CC[C@H](C)[C@@H]1NC(=O)[C@H](CC(C)C)N(C)C(=O)C[C@@H](C(=O)N2CCOCC2)N(C)C(=O)[C@H](C2CCCC2)N(C)C(=O)C2(CCCC2)NC(=O)[C@@H]2CCCN2C(=O)[C@H](CCc2cc(F)c(C(F)(F)F)c(F)c2)NC(=O)CN(C)C(=O)[C@H](Cc2ccc(C(F)(F)F)cc2)N2CCCCC[C@@H](C2=O)N(C)C(=O)CN(CC)C1=O [PP0483] |  |  | 6.28 |  |  | B (a compound having 3 or more and less than 10 is denoted as B) | B (a compound having 3 or more and less than 10 is denoted as B) |
| CCC(CC)[C@@H]1NC(=O)[C@H](CC(C)C)N(C)C(=O)C[C@@H](C(=O)N2CCOCC2)N(C)C(=O)[C@H](C2CCCC2)N(C)C(=O)C2(CCCC2)NC(=O)[C@@H]2CCCN2C(=O)[C@H](CCc2cc(F)c(C(F)(F)F)c(F)c2)NC(=O)CN(C)C(=O)[C@H](Cc2ccc(C(F)(F)F)cc2)N2CCCC[C@@H](C2=O)N(C)C(=O)CN(C)C1=O [PP0597] |  |  | 7.74 |  |  | B (a compound having 3 or more and less than 10 is denoted as B) | B (a compound having 3 or more and less than 10 is denoted as B) |
| CC[C@H](C)[C@@H]1NC(=O)[C@H](CC(C)C)N(C)C(=O)C[C@@H](C(=O)N2CCOCC2)N(C)C(=O)[C@H](C2CCCC2)N(C)C(=O)C2(CCCC2)NC(=O)[C@@H]2CCCN2C(=O)[C@H](CCc2ccc(C(F)(F)F)c(Cl)c2)NC(=O)CN(C)C(=O)[C@H](Cc2ccc(F)cc2)N(CC)C(=O)[C@@H]2CCN2C(=O)[C@H](C)N(C)C1=O [PP0218] ([NMeL]I[NMeA][Aze][NEtPhe(4-F)][Sar][hPhe(3-Cl-4-CF3)]P[Ac5c][NMeGly(cPent)][NMeD]-Morpholide; lactam N-11) | C (A compound having a KD ratio of 0.1 or more and less than 3 is denoted as C) | C (A compound having a KD ratio of 0.1 or more and less than 3 is denoted as C) | 8.41 |  |  |  |  |
| CCO[C@@H]1C[C@H]2C(=O)NC3(CC(C)(C)C3)C(=O)N(C)[C@@H](CC(C)(C)C)C(=O)N(C)[C@H](C(=O)N(C)C)CC(=O)N(C)[C@@H](C(C)C)C(=O)N[C@@H]([C@@H](C)CC)C(=O)N(C)CC(=O)N(C)[C@H]3C/C=C\CCN(C3=O)[C@@H](Cc3ccc(C(F)(F)F)cc3)C(=O)N(C)CC(=O)N[C@@H](CCc3ccc(C(F)(F)F)c(OC)c3)C(=O)N2C1 [PP2773] | B (a compound having 3 or more and less than 10 is denoted as B) | B (a compound having 3 or more and less than 10 is denoted as B) | 8.07 |  |  |  |  |
